Read-outs that look alike come from different tables or passages of the source.
Columns and labels:
B16F10 cells = test: Cell viability (EZ-Cytox assay); format: cell-based, murine; conditions: 0, 1, 2, 5, 10, 20 µM, 72 h
Experimental: Before these experiments were performed, the influence of these derivatives on cytotoxicity in B16F10 cells was examined to determine their optimal concentration range for B16F10 cell experiments. The cytotoxicity of derivatives 7 and 8 at six concentrations (0, 1, 2, 5, 10, and 20 µM) was assessed using the EZ-Cytox assay.
Cytotoxicity assays in B16F10 cells were performed using the EZ-Cytox solution (EZ-3000, DoGenBio, Seoul, Republic of Korea). Briefly, B16F10 cells were seeded at a density of 1 × 10^4 cells per well and cultured at 37 °C in a 5% CO2 atmosphere for 24 h. […] Then, the EZ-Cytox solution (10 μL aliquot) was added to each well. After 2 h of incubation at 37 °C, the optical density of each well was measured at 450 nm using a microplate reader (VersaMax; Molecular Devices).

mushroom tyrosinase [1] = target: T1, mushroom tyrosinase (Agaricus bisporus, UniProt C7FF04); test: Kinetic studies of mushroom tyrosinase inhibition (Lineweaver–Burk and Dixon plots); format: biochemical; conditions: substrate L-dopa
T1 construct: purchased
T1 sequence (C7FF04 1-392): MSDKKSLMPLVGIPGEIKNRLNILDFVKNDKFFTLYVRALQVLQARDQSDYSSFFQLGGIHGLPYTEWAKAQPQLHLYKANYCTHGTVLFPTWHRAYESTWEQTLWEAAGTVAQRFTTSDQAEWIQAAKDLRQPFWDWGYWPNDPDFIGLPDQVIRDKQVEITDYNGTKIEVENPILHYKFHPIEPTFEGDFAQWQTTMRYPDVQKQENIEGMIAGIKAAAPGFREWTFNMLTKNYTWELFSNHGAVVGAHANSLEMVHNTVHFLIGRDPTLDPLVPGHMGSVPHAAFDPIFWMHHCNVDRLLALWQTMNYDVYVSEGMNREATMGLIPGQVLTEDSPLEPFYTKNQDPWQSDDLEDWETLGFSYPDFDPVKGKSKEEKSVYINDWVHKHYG
Experimental: Kinetic studies using Lineweaver–Burk plots were performed using four different concentrations (0, 0.5, 1, and 2 µM) of the test derivatives (7 and 8) and five different concentrations (0.5, 1, 2, 4, and 8 mM for 7, and 1, 2, 4, 8, and 16 mM for 8) of L-dopa.
Lineweaver–Burk plots for 7 and 8 were transformed into the corresponding Dixon plots to determine their inhibition constant (Ki) values for the mushroom tyrosinase–inhibitor complex. […] The Ki values for the mushroom tyrosinase–inhibitor complex were obtained from the x-axis value of each convergence point.
Lineweaver–Burk plots of derivatives 7 and 8 were obtained in the presence of L-dopa as the substrate. Briefly, 20 µL aliquots of mushroom tyrosinase aqueous solution (200 units/mL) were added to each well of a 96-well plate containing 10 µL BABT derivative (7 or 8) DMSO solution (final concentrations: 0, 0.5, 1, and 2 µM) and 170 µL of an aqueous solution containing L-dopa (final concentrations: 1.0, 2.0, 4.0, 8.0, and 16.0 mM) and sodium phosphate buffer (pH 6.5, 17.2 mM). The initial rate of dopachrome formation was determined by examining the changes in absorbance at a wavelength of 475 nm (ΔOD475/min) using a microplate reader (VersaMax; Molecular Devices).

[2] = DPPH radical scavenging assay; conditions: test samples 500 µM; DPPH 0.18 mM; 30 min in the dark
Experimental: DPPH is a light-sensitive compound containing free radicals. The DPPH assay is one of the most common methods for evaluating the antioxidant activity of a compound. The effects of BABT derivatives on DPPH radical scavenging activities were evaluated using L-ascorbic acid as a positive reference control. DPPH radical scavenging activities were measured after leaving the mixed samples (test samples of 500 µM plus DPPH solution of 0.18 mM) in the dark for 30 min. To determine the radical scavenging activities, the absorbance of the mixed samples was measured at 517 nm.
According to previously described methods, with minor modifications, the DPPH radical scavenging activities of BABT derivatives 1–14 were measured. A DPPH (0.2 mM) and methanol solution (180 µL) was mixed with 20 µL of a DMSO solution containing 5 mM BABT derivative, or with 20 µL of an aqueous solution of 5 mM L-ascorbic acid, in each well of a 96-well plate and kept at ambient temperature in the dark for 30 min. The optical density of each well was measured at 517 nm using a microplate reader (VersaMax; Molecular Devices). L-Ascorbic acid was used as a positive reference control, and the DPPH radical scavenging abilities of BABT derivatives were compared with those of L-ascorbic acid. All experiments were performed independently, thrice.

mushroom tyrosinase [3] = test: Mushroom tyrosinase inhibition assay; format: biochemical; conditions: for IC50: mean ± SEM of three experiments
Experimental: As mushroom tyrosinase is commercially available and relatively cheap, it is used as a tool for the identification of novel tyrosinase inhibitors. Here, we examined the tyrosinase inhibitory activities of the 14 BABT derivatives against mushroom tyrosinase in the presence of L-tyrosine or L-dopa as substrates.
Mushroom tyrosinase inhibitory activities of BABT derivatives were determined as described previously, with minor modifications. L-Tyrosine and L-dopa were used as substrates to evaluate the enzyme activity. […] Assay mixtures were incubated at 37 °C for 30 min, and dopachrome amounts synthesized were determined by measuring the optical density of each well at 475 nm using a microplate reader (VersaMax; Molecular Devices, Sunnyvale, CA, USA).

tyrosinase = test: Western blotting of tyrosinase protein expression; format: cell-based, murine
Experimental: We investigated whether, in addition to the direct inhibition of tyrosinase, another inhibitory mechanism of melanogenesis by derivative 8 may be related to the expression of proteins involved in melanogenesis. For the Western blotting experiment, B16F10 cells were treated with α-MSH (1 µM) plus IBMX (200 µM), leading to a 1.7- and 4.9-fold increase in expression levels of melanogenesis-associated proteins tyrosinase and MITF, compared to those in the untreated control (100%) (Figure 13).
B16F10 cells were seeded in a 60 mm dish at a density of 5 × 10^5 cells/mL for 24 h, washed with cold PBS, and harvested. Cytosolic and nuclear fractions of cell lysates were extracted using lysis buffer, as described previously. Protein concentrations in the cell lysates were estimated using the BCA protein assay (Pierce, Rockford, IL, USA). […] The membranes were washed and protein bands detected using the SuperSignal West Pico Chemiluminescence assay kit (Advansta, San Jose, CA, USA) and the Davinch–Chem program (Davinch-K, Seoul, Republic of Korea). Immunoblotting data were quantified using CS Analyzer 3.2 (Densitograph) image analysis software (http://www.attokorea.co.kr, accessed on 21 November 2022).

- Ki (mushroom tyrosinase [1]; Dixon plots, read-out: inhibition constant (Ki) for the mushroom tyrosinase–inhibitor complex): 810 nM
- mode of inhibition (mushroom tyrosinase [1]; Lineweaver–Burk plots): competitive inhibitors
- fold higher IC50 value with L-dopa than with L-tyrosine (mushroom tyrosinase [3]; L-dopa versus L-tyrosine as substrate): 4 fold
- IC50 (mushroom tyrosinase [3]; substrate L-dopa, read-out: IC50 (µM) L-Dopa): 1.04 ± 0.05 µM
- fold more potent than kojic acid (mushroom tyrosinase [3]; substrate L-tyrosine): 106 fold
- IC50 (mushroom tyrosinase [3]; substrate L-tyrosine, read-out: IC50 (µM) L-Tyrosine): 0.27 ± 0.03 µM
Compound: O=C1N=C(NCc2ccccc2)S/C1=C\c1ccc(O)cc1O [Compound 8, (Z)-2-(benzylamino)-5-(2,4-dihydroxybenzylidene)thiazol-4(5H)-one]
- cytotoxicity (B16F10 cells): no cytotoxicity until 72 h at all tested concentrations
- DPPH radical scavenging activity, % inhibition [2]: 76%
- relative expression level of tyrosinase protein (tyrosinase; 10 µM, α-MSH plus IBMX treated B16F10 cells): lowered the protein expression to the same or lower control levels
- relative expression level of tyrosinase protein (tyrosinase; 5, 10 and 20 µM, α-MSH (1 µM) plus IBMX (200 µM) treated B16F10 cells): significantly reduced the relative expression levels of tyrosinase and MITF in a dose-dependent manner

— PMC9865752, “Design and Synthesis of (Z)-2-(Benzylamino)-5-benzylidenethiazol-4(5H)-one Derivatives as Tyrosinase Inhibitors and Their Anti-Melanogenic and Antioxidant Effects” (Molecules, 2023)
